Reference: US20150087649A1, “TREATING DISORDERS ASSOCIATED WITH ABERRANT ADRENOCORTICAL CELL BEHAVIOR” (Atterocor, Inc., priority 2013, published 2015)
Where two headings read alike, the source gives them in different places.

Legend:
human ACAT1 = biological target: T1, human ACAT1 (Homo sapiens, UniProt P35610, Q526R); test: Fluorescent cell-based assay measuring esterification of NBD-cholesterol in AC29 cells expressing huACAT1
T1 construct: expressed in transfected cells
T1 sequence (P35610 1-550 Q526R): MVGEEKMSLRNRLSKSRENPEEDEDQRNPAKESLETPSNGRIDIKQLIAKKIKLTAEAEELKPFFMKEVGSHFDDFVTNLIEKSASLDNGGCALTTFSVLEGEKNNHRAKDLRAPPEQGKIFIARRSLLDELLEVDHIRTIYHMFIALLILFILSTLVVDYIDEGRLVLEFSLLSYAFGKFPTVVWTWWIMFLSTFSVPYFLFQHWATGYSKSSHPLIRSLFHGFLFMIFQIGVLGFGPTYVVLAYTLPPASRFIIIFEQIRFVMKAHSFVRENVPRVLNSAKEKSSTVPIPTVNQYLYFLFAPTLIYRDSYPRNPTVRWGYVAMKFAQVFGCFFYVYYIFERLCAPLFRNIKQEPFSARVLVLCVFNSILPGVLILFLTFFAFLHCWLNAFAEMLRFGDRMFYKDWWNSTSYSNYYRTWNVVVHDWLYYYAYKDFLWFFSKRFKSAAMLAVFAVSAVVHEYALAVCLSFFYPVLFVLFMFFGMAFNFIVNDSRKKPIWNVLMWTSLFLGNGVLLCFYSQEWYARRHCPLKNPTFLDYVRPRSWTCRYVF
Description: In the methods described herein, the agent inhibits the ability of huACAT1 to catalyze the esterification of free cholesterol into cholesteryl ester. […] AC29 cells lack endogenous ACAT1 activity and are transfected to express human ACAT1. The assay uses 22-[N-(7-nitrobenz-2-oxa-1,3-diazol-4-yl)amino]-23,24-bisnor-5-cholen-3-ol (NBD-cholesterol), a fluorescent sterol analog in which the NBD moiety replaces the terminal segment of the alkyl tail of cholesterol. […] In a polar environment, NBD-cholesterol is weakly fluorescent. In a nonpolar environment, NBD-cholesterol is strongly fluorescent. The fluorescent property of NBD-cholesterol is used to measure ACAT activity, as cholesterol is a polar lipid and cholesteryl ester is nonpolar. Untransfected AC29 cells or AC29 cells expressing huACAT1 treated with a known ACAT inhibitor can be used to determine background fluorescence due to free-NBD-cholesterol.
(§1) Cells were maintained in monolayer at 37° C. in 5% CO2 in Ham's F-12 medium supplemented with 1% Eagle's vitamins, penicillin (100 units/ml), streptomycin (100 μg/ml), and 10% heat-inactivated fetal bovine serum, and cells were typically grown to 70-90% confluence for all experiments.
(§2) Human ACAT1 activity was assessed using a fluorescent cell-based assay as described in Lada et al. (supra). The assay uses 22-[N-(7-nitrobenz-2-oxa-1,3-diazol-4-yl)amino]-23,24-bisnor-5-cholen-3-ol (NBD-cholesterol), a fluorescent sterol analog in which the NBD moiety replaces the terminal segment of the alkyl tail of cholesterol. […] In a polar environment, NBD-cholesterol is weakly fluorescent. In a nonpolar environment, NBD-cholesterol strongly is strongly fluorescent. The fluorescent property of NBD-cholesterol is used to measure ACAT activity, as cholesterol is a polar lipid and cholesteryl ester is nonpolar. 3×10^5 cells per well were plated on Falcon 96-well culture plates and allowed to recover overnight. Assays were performed with cells that are at least 80% confluent. Media was aspirated and wells were pre-incubated with 100 μL of dilutions of control and test compounds from 1000× stock solutions in DMSO (or other neutral diluent e.g., methanol, ethanol, or water) for 20 minutes. Media was removed and replaced with 100 μL of medium containing the same dilution of compound or vehicle as in the pre-incubation and 1 μg/ml NBD-cholesterol and incubated for 6 hr at 37° C. (Lada et al., supra). […] Parental AC29 cells incubated with NBD-cholesterol or ACAT1-expressing cells incubated with NBD-cholesterol and the […] were used to determine background fluorescence attributable to free NBD-cholesterol. After incubation, medium is removed, and the cells were washed two times with cold balanced salt solution (BSS). […] Cholesteryl ester (CE) fluorescence was calculated by subtracting the background from the total fluorescence, and these values were normalized by cellular protein.

human ACAT2 = biological target: T2, human ACAT2 (Homo sapiens, UniProt O75908); test: Fluorescent NBD-cholesterol esterification assay in AC29 stable transfectants, Table 2; type: cell-based
T2 sequence (O75908 1-522): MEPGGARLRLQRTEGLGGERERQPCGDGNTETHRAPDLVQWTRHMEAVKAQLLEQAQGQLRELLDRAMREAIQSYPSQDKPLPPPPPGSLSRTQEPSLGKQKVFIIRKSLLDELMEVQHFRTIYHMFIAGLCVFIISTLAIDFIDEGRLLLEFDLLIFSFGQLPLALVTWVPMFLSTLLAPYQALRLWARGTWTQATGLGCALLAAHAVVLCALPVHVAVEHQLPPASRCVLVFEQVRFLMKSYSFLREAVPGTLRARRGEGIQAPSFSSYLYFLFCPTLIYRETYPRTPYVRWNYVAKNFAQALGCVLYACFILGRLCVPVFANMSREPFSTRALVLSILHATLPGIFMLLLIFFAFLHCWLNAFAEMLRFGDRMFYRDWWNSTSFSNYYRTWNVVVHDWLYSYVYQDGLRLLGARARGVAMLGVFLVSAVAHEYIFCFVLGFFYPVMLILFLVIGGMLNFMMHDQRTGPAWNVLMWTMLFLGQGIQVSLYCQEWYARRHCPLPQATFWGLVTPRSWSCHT
Experimental: [The procedure below names another target; the source lists this target under the same test.] as §1, §2

H295R cells [1] = test: XBP-1 splicing (unfolded protein response) in H295R cells with exogenous cholesterol; type: cell-based, human; details: compound at its ACAT1 IC50 concentration, 45 ug/mL exogenous cholesterol, 5 hours
Experimental: Treatment of H295R cells by an agent can result in chronic disruption of cholesterol homeostasis that may lead to activation of the UPR and/or triggering of the programmed cell death response and the induction apoptotic markers.
H295R adrenocortical cells are plated at 500,000 cells/well in a 12-well culture plate as described in Example 8. […]. After 5 hours of treatment, RNA is extracted using the Qiagen RNEasy® Plus kit and 1 μg RNA is reverse transcribed using Applied Biosystems® High-Capacity cDNA Reverse Transcription Kit. XBP-1 splicing product is amplified by PCR using primer pairs that allow detection of the activated isoform (5′-[…]-3′ (SEQ ID NO:15) and 5′-[…]-3′ (SEQ ID NO:16)) under the following conditions: 1) 95° C. for 30 sec, 2) 95° C. for 15 sec; 3) 50° C. for 15 sec, 4) 68° C. for 30 sec. […] Amplification steps 2 through 4 are repeated for 30 cycles. PCR product is resolved on a 5% agarose gel. DTT treated cells serve as a positive control for XBP-1 splicing. An increase in the XBP-1 splice variant expression of greater than 20% is considered significant.

adrenocortical cells = details: as reported in the literature; cited from earlier work
H295R = test: Free and esterified cholesterol in H295R cells with exogenous cholesterol; type: cell-based, human; details: compound at its ACAT1 IC50 concentration, 45 μg/ml cholesterol
Experimental: In this study, H295R were plated at 200,000 cells/well in a 24 well plate. After overnight incubation at 37° C., media was removed and replaced with treatment media (test compound at its ACAT1 IC50 concentrations containing 45 μg/ml cholesterol) or vehicle (DMSO). After treatment of cells for various lengths of time (minutes to hours), media was removed and cells are washed twice with cold PBS. 200 ul of hexane/isopropanol (3:2) was then added to each well, the plate was rocked at room temperature for 1 hour, and the supernatant was transferred to glass vials and allowed to air dry. Residual lipids were resuspended and total cholesterol and free cholesterol were measured using the Cholesterol Fluorometric Assay Kit (Cayman Chemical). Cholesterol ester was determined by subtracting free cholesterol from total cholesterol.

H295R cells [2] = test: Caspase-3/7 activity (Apotox-Glo) in H295R cells with exogenous cholesterol; type: cell-based, human; details: compound at its ACAT1 IC50 concentration, 45 ug/mL exogenous cholesterol, 5 hours
Experimental: Commercially-available assay kits may also be employed to measure Caspase 3/7 activity, including for example the Apotox-Glo Assay Kit (Promega). […] H295R cells are plated at 500,000 cells/well in a 12 well plate. After overnight incubation at 37° C., media is removed and replaced with media containing vehicle (DMSO) or one of the ACAT1 inhibitors at its ACAT1 IC50 concentration in the presence of 45 ug/mL exogenous cholesterol. After 5 hours of treatment, cells are harvested, washed and assayed for Caspase-3/7 activity using the Apotox-Glo Assay Kit (Promega).

[3] = system: adrenocortical carcinoma (ACC); details: cited from earlier work
[4] = Table 2, first IC50 column, AC29 cells expressing huACAT1, 1 μg/ml NBD-cholesterol, 6 hr, read-out: IC50 huACAT1
[5] = Table 3, determined as described in Example 1, read-out: ACAT1 IC50
[6] = Table 2, second IC50 column (head repeats huACAT1), AC29 transfectants, NBD-cholesterol, read-out: IC50 huACAT1

`CC(C)c1cccc(C(C)C)c1OC(=O)NS(=O)(=O)Oc1c(C(C)C)cccc1C(C)C` [Compound 1] gave an IC50 (human ACAT1) of 2400 nM and an IC50 (human ACAT2) of 440 nM.
For `Cc1ccc2oc(CN(Cc3ccccc3)C(=O)Nc3c(F)cc(F)cc3F)c(-c3ccc(Cl)cc3)c2c1` [Compound 5], the IC50 (human ACAT1; [4]) was 6 nM, the IC50 (human ACAT1; [5]) was 10 nM and the “splicing of XBP-1 compared to vehicle” value (H295R cells [1]) was “significant splicing of XBP-1”. The Adrenal activity (adrenocortical cells) was “Adrenal acting”, the “free cholesterol compared to vehicle” value (H295R) was “increase in free cholesterol” and the IC50 (human ACAT2; [6]) was 80 nM. For the same compound, the “Caspase-3/7 activity compared to vehicle” value (H295R cells [2]) was “significant increases”.
For `CCCCC[C@H]1C=C[C@@H](CCCCC)SC1[C@@H](C)Nc1c(SC)cc(C)nc1SC` (some centres unmarked) [Compound 6], the IC50 (human ACAT1; [4]) was 1.8 nM and the IC50 (human ACAT2; [6]) was 18 nM.
With `CCCCCCCCC(C)(C)C(=O)Nc1c(OC)cc(OC)cc1OC` [Compound 7] the IC50 (human ACAT1; [4]) was 540 nM.
For `Clc1ccc(C(c2ccccc2Cl)C(Cl)Cl)cc1` (centres unmarked) [mitotane], the “delay of disease progression, average” value ([3]; ACC patients that derive a therapeutic benefit) is listed as “five” and the “share of patients with increased progression-free survival” value ([3]; ACC patients) is listed as “one-quarter to one-third”.
With `CCCCCCCCCCCCn1nnc(C(C(=O)Nc2c(C(C)C)cccc2C(C)C)c2ccccc2)n1` (centres unmarked) [Compound 3, 2H-Tetrazole-5-acetamide, N-[2,6-bis(1-methylethyl)phenyl]-2-dodecyl-a-phenyl-] the IC50 (human ACAT1; [4]) was 2000 nM, the IC50 (human ACAT1; [5]) was 11 nM and the “splicing of XBP-1 compared to vehicle” value (H295R cells [1]) was “significant splicing of XBP-1”. For the same compound, the Adrenal activity (adrenocortical cells) was “Adrenal acting”, the “free cholesterol compared to vehicle” value (H295R) was “increase in free cholesterol” and the IC50 (human ACAT2; [6]) was 510 nM. The “Caspase-3/7 activity compared to vehicle” value (H295R cells [2]) was “significant increases”.
With `CCCCCCCCCCCCCOC(=O)C(C(=O)Nc1c(C(C)C)cccc1C(C)C)c1ccccc1` (centres unmarked) [Compound 2] the IC50 (human ACAT1; [4]) was 20 nM and the IC50 (human ACAT2; [6]) was 21 nM.
